Tests used:
Experiment in all cases: relative viability (nuclei count vs DMSO), 5 days (fraction); higher = more cells survive
[1] = compound: CCOC1=CC=CC=C1N=NC2=C(NN(C2=O)C3=NC(=CS3)C4=CC=CC=C4)C [BAM7] + CS(=O)(=O)CCNCc1ccc(-c2ccc3ncnc(Nc4ccc(OCc5cccc(F)c5)c(Cl)c4)c3c2)o1 [Lapatinib] (partner 2 µM)
Outline: (§1)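 Lung cancer cell lines, seeded in 1536-well plates, were treated the following day by pin tool with a single drug or with five library-drug doses (not always all listed) in √10 steps on top of a fixed anchor-drug dose. Cells were fixed and nuclei stained in one step after 5 days, and nuclei were counted. Relative viability is the nuclei count for treated wells divided by that for vehicle wells, reported as medians of duplicate plates.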

[2] = compound: CCn1c(-c2nonc2N)nc2c(C#CC(C)(C)O)ncc(OC[C@H]3CCCNC3)c21 + CS(=O)(=O)CCNCc1ccc(-c2ccc3ncnc(Nc4ccc(OCc5cccc(F)c5)c(Cl)c4)c3c2)o1 [Lapatinib] (partner 2 µM)
Outline: as §1

[3] = compound: CCn1c(-c2nonc2N)nc2c(C#CC(C)(C)O)ncc(OC[C@H]3CCCNC3)c21 + Cc1nc(NC(=O)N2CCC[C@H]2C(N)=O)sc1-c1ccnc(C(C)(C)C(F)(F)F)c1 [Alpelisib] (partner 2 µM)
Outline: as §1

[4] = compound: CCOC1=CC=CC=C1N=NC2=C(NN(C2=O)C3=NC(=CS3)C4=CC=CC=C4)C [BAM7] + CS(=O)(=O)N1CCN(Cc2cc3nc(-c4cccc5[nH]ncc45)nc(N4CCOCC4)c3s2)CC1 [Pictilisib] (partner 1 µM)
Outline: as §1

201T
relative viability ([1]; first compound 0.5 µM): 1.05
relative viability ([1]; first compound 5 µM): 1.04
relative viability ([1]; first compound 15.81 µM): 0.973
relative viability ([1]; first compound 50 µM): 1.02
relative viability ([2]; first compound 0.01 µM): 0.991
relative viability ([2]; first compound 0.03162 µM): 1.06
relative viability ([2]; first compound 0.1 µM): 1.05
relative viability ([2]; first compound 0.3162 µM): 1.05
relative viability ([2]; first compound 1 µM): 1.01
relative viability ([3]; first compound 0.01 µM): 0.989
relative viability ([3]; first compound 0.03162 µM): 0.992
relative viability ([3]; first compound 0.1 µM): 0.99
relative viability ([3]; first compound 0.3162 µM): 0.978
relative viability ([3]; first compound 1 µM): 1.02
relative viability ([4]; first compound 0.5 µM): 0.637
relative viability ([4]; first compound 5 µM): 0.625
relative viability ([4]; first compound 15.81 µM): 0.593
relative viability ([4]; first compound 50 µM): 0.69

NCI-H2126
relative viability ([1]; first compound 0.5 µM): 0.726
relative viability ([1]; first compound 5 µM): 0.664
relative viability ([1]; first compound 15.81 µM): 0.743
relative viability ([1]; first compound 50 µM): 0.755
relative viability ([2]; first compound 0.01 µM): 0.779
relative viability ([2]; first compound 0.03162 µM): 0.773
relative viability ([2]; first compound 0.1 µM): 0.641
relative viability ([2]; first compound 0.3162 µM): 0.731
relative viability ([2]; first compound 1 µM): 0.755
relative viability ([3]; first compound 0.01 µM): 0.72
relative viability ([3]; first compound 0.03162 µM): 0.793
relative viability ([3]; first compound 0.1 µM): 0.74
relative viability ([3]; first compound 0.3162 µM): 0.746
relative viability ([3]; first compound 1 µM): 0.753
relative viability ([4]; first compound 0.5 µM): 0.514
relative viability ([4]; first compound 5 µM): 0.448
relative viability ([4]; first compound 15.81 µM): 0.507
relative viability ([4]; first compound 50 µM): 0.479

HOP-62
relative viability ([1]; first compound 0.5 µM): 1.09
relative viability ([1]; first compound 5 µM): 1.27
relative viability ([1]; first compound 15.81 µM): 0.969
relative viability ([1]; first compound 50 µM): 0.986
relative viability ([2]; first compound 0.01 µM): 1.11
relative viability ([2]; first compound 0.03162 µM): 1.05
relative viability ([2]; first compound 0.1 µM): 1
relative viability ([2]; first compound 0.3162 µM): 0.993
relative viability ([2]; first compound 1 µM): 0.87
relative viability ([3]; first compound 0.01 µM): 0.966
relative viability ([3]; first compound 0.03162 µM): 1.12
relative viability ([3]; first compound 0.1 µM): 0.819
relative viability ([3]; first compound 0.3162 µM): 0.951
relative viability ([3]; first compound 1 µM): 1.13
relative viability ([4]; first compound 0.5 µM): 0.664
relative viability ([4]; first compound 5 µM): 0.729
relative viability ([4]; first compound 15.81 µM): 0.742
relative viability ([4]; first compound 50 µM): 0.799

CAL-12T
relative viability ([1]; first compound 0.5 µM): 0.677
relative viability ([1]; first compound 5 µM): 0.581
relative viability ([1]; first compound 15.81 µM): 0.599
relative viability ([1]; first compound 50 µM): 0.692
relative viability ([2]; first compound 0.01 µM): 0.613
relative viability ([2]; first compound 0.03162 µM): 0.665
relative viability ([2]; first compound 0.1 µM): 0.845
relative viability ([2]; first compound 0.3162 µM): 0.585
relative viability ([2]; first compound 1 µM): 0.595
relative viability ([3]; first compound 0.01 µM): 1.03
relative viability ([3]; first compound 0.03162 µM): 1.33
relative viability ([3]; first compound 0.1 µM): 1.21
relative viability ([3]; first compound 0.3162 µM): 1.24
relative viability ([3]; first compound 1 µM): 0.939
relative viability ([4]; first compound 0.5 µM): 0.467
relative viability ([4]; first compound 5 µM): 0.526
relative viability ([4]; first compound 15.81 µM): 0.413
relative viability ([4]; first compound 50 µM): 0.466

NCI-H520
relative viability ([1]; first compound 0.5 µM): 0.804
relative viability ([1]; first compound 5 µM): 0.904
relative viability ([1]; first compound 15.81 µM): 0.93
relative viability ([1]; first compound 50 µM): 1.03
relative viability ([2]; first compound 0.01 µM): 0.923
relative viability ([2]; first compound 0.03162 µM): 0.952
relative viability ([2]; first compound 0.1 µM): 0.727
relative viability ([2]; first compound 0.3162 µM): 0.454
relative viability ([2]; first compound 1 µM): 0.425
relative viability ([3]; first compound 0.01 µM): 1.01
relative viability ([3]; first compound 0.03162 µM): 0.883
relative viability ([3]; first compound 0.1 µM): 0.605
relative viability ([3]; first compound 0.3162 µM): 0.851
relative viability ([3]; first compound 1 µM): 0.547
relative viability ([4]; first compound 0.5 µM): 0.273
relative viability ([4]; first compound 5 µM): 0.3
relative viability ([4]; first compound 15.81 µM): 0.264
relative viability ([4]; first compound 50 µM): 0.324

NCI-H1755
relative viability ([1]; first compound 0.5 µM): 1.06
relative viability ([1]; first compound 5 µM): 1.13
relative viability ([1]; first compound 15.81 µM): 1.04
relative viability ([1]; first compound 50 µM): 0.979
relative viability ([2]; first compound 0.01 µM): 1.03
relative viability ([2]; first compound 0.03162 µM): 1.02
relative viability ([2]; first compound 0.1 µM): 1.03
relative viability ([2]; first compound 0.3162 µM): 0.993
relative viability ([2]; first compound 1 µM): 1.07
relative viability ([3]; first compound 0.01 µM): 0.943
relative viability ([3]; first compound 0.03162 µM): 0.944
relative viability ([3]; first compound 0.1 µM): 0.896
relative viability ([3]; first compound 0.3162 µM): 0.916
relative viability ([3]; first compound 1 µM): 0.981
relative viability ([4]; first compound 0.5 µM): 0.454
relative viability ([4]; first compound 5 µM): 0.409
relative viability ([4]; first compound 15.81 µM): 0.366
relative viability ([4]; first compound 50 µM): 0.415

NCI-H2023
relative viability ([1]; first compound 0.5 µM): 1.05
relative viability ([1]; first compound 5 µM): 0.751
relative viability ([1]; first compound 15.81 µM): 0.737
relative viability ([1]; first compound 50 µM): 1.09
relative viability ([2]; first compound 0.01 µM): 0.74
relative viability ([2]; first compound 0.03162 µM): 0.792
relative viability ([2]; first compound 0.1 µM): 0.769
relative viability ([2]; first compound 0.3162 µM): 0.689
relative viability ([2]; first compound 1 µM): 0.953
relative viability ([3]; first compound 0.01 µM): 0.636
relative viability ([3]; first compound 0.03162 µM): 0.625
relative viability ([3]; first compound 0.1 µM): 0.539
relative viability ([3]; first compound 0.3162 µM): 0.504
relative viability ([3]; first compound 1 µM): 0.559
relative viability ([4]; first compound 0.5 µM): 0.277
relative viability ([4]; first compound 5 µM): 0.245
relative viability ([4]; first compound 15.81 µM): 0.3
relative viability ([4]; first compound 50 µM): 0.297

NCI-H2009
relative viability ([1]; first compound 0.5 µM): 1.03
relative viability ([1]; first compound 5 µM): 1.06
relative viability ([1]; first compound 15.81 µM): 0.898
relative viability ([1]; first compound 50 µM): 0.938
relative viability ([2]; first compound 0.01 µM): 0.974
relative viability ([2]; first compound 0.03162 µM): 1.03
relative viability ([2]; first compound 0.1 µM): 1.05
relative viability ([2]; first compound 0.3162 µM): 1.02
relative viability ([2]; first compound 1 µM): 0.905
relative viability ([3]; first compound 0.01 µM): 1.15
relative viability ([3]; first compound 0.03162 µM): 1.19
relative viability ([3]; first compound 0.1 µM): 1.22
relative viability ([3]; first compound 0.3162 µM): 1.17
relative viability ([3]; first compound 1 µM): 1.18
relative viability ([4]; first compound 0.5 µM): 0.899
relative viability ([4]; first compound 5 µM): 0.827
relative viability ([4]; first compound 15.81 µM): 0.846
relative viability ([4]; first compound 50 µM): 0.854

— the supplement of paper PMC10307832
